We go through seven molecules from publication PMC6522524 (Nature Communications, 2019).

Where “and” joins values, the source holds several entries; their conditions need not be identical. Identical values can stand only once. Counter-ions that a name gives are not always drawn. Like-named read-outs stand apart in the source and are kept apart here.

The subject of series [1] is HBV pgRNA promoter, HBV sRNA promoter. Put plainly: Promoter analysis in HepG2 cells transfected with pGL3/HBV pgRNA promoter or pGL3/HBV sRNA promoter. The settings on record: ETV. In kind it is cell-based, Hepatitis B virus. The source says:
(§1) a Schematic depiction of the R1, R2, and R3 regions of the HBV genome that were targeted by
(§2) quantitative RT-PCR to quantitate the transcription of pgRNA, two HBV surface RNAs, and HBx RNA.
(§3) pGL3/HBV pgRNA promoter or pGL3/HBV sRNA promoter. The data shown in (b – d) represent two

A short description of series [2]: in vitro. To be noted: human, Cell viability(%), HepG2.2.15, 10 μM, 6 days.
The test system of series [3] is HBV transcripts in HepG2 cells transfected with pHBV1.2×. Put plainly: HBV transcription in HepG2 cells transfected with pHBV1.2×, quantitative RT-PCR. It is filed as cell-based, Hepatitis B virus. To be noted: Suppl. fig. 12c, ETV, Control = 1. As to the method: Quantitative RT-PCR with primers that detect three HBV regions (R1, R2, and R3, Supplementary Table 1) was used to measure HBV transcription. This RT-PCR detects pgRNA and precore RNA (3.5 kB), two HBV surface-encoding RNAs (2.5 kB and 2.1 kB), and HBx-encoding RNA (0.7 kB)[55]. PCR conditions were 95 °C for 10 min initially, then 50 cycles of 95 °C for 30 s, 60 °C for 60 s and 72 °C for 30 s, and finally 1 cycle of 95 °C for 60 s, 55 °C for 30 s and 95 °C for 30 s. […]
a Schematic depiction of the R1, R2, and R3 regions of the HBV genome that were targeted by quantitative RT-PCR to quantitate the transcription of pgRNA, two HBV surface RNAs, and HBx RNA. […]
c Region 3 transcription in ciclopirox-treated (b) HepG2.2.15 cells and (c) HepG2 cells transfected with the pHBV1.2× plasmid. d The promoter analysis of ciclopirox-treated HepG2 cells transfected with pGL3/HBV pgRNA promoter or pGL3/HBV sRNA promoter. The data shown in (b – d) represent two

In series [4] the test system is HBV (pHBV1.2× adr) in transfected HepG2 cells. The series is described as follows: microbe, parasite or virus in culture. It is filed as cell-based, Hepatitis B virus. The settings on record: 10 μM, 6 days.
Series [5] concerns HBV pgRNA/precore RNA in HepG2.2.15 cells. It is filed as cell-based, Hepatitis B virus. As to the method:
Fig. 1 Effect of FDA-approved compounds on HBV replication. a Schematic depiction of the primary screening analysis. HepG2.2.15 cells, which were stably transfected with HBV replicons, were treated with 978 FDA-approved drugs (1 μM) for 3 days. Entecavir (ETV) (1 μM) served as positive control. […] Quantitative RT-PCR was performed after 6 days of incubation. d Effect of the 19 candidates on intracellular HBV capsid assembly. Huh-7 cells were transfected with pCDNA3-Core and exposed after 12 h to the 19 candidates (1 μM) for 36 h. The cells were lysed and assembled HBV core particles were isolated by sucrose step gradient ultracentrifugation, resolved on 1% agarose gels, and subjected to immunoblot analysis with anti-HBV core antibody.
Quantitative RT-PCR with primers that detect three HBV regions (R1, R2, and R3, Supplementary Table 1) was used to measure HBV transcription. This RT-PCR detects pgRNA and precore RNA (3.5 kB), two HBV surface-encoding RNAs (2.5 kB and 2.1 kB), and HBx-encoding RNA (0.7 kB)[55]. PCR conditions were 95 °C for 10 min initially, then 50 cycles of 95 °C for 30 s, 60 °C for 60 s and 72 °C for 30 s, and finally 1 cycle of 95 °C for 60 s, 55 °C for 30 s and 95 °C for 30 s.
as §1, §2, §3

Series [6] has as its system HBsAg in HepG2 cells transfected with pHBV1.2×. The series is described as follows: Secreted HBsAg ELISA, HepG2 cells transfected with pHBV1.2×. It is filed as cell-based, Hepatitis B virus. To be noted: 10 μM, 6 days. As to the method: (§4) Secreted HBsAg (f, i respectively) was quantified by ELISA.
(§5) An HBsAg ELISA kit (KA0286, Abnova) was used to quantify HBsAg protein. Briefly, culture media were incubated in individual wells of the capture plates for 2 h. After washing, horseradish peroxidase-labeled rabbit anti-HBV surface antibody was added, followed by incubation for an additional 2 h. The substrate solution was added for 15–60 min and absorbance at 450 nm was measured.
A general note: ELISA stands for enzyme-linked immunosorbent assay.

Series [7] can be described thus: in vitro. The settings on record: human, Cell viability(%), HBV 1.2x adr, 10 μM, 6 days.
Series [8] concerns HBV (ayw subtype, genotype D) replicon in HepG2.2.15 cells. The series is described as follows: microbe, parasite or virus in culture. The settings on record: for activity at 10 µM / inhibition at 1 µM: Hepatitis B virus. In kind it is cell-based, Hepatitis B virus.
Series [9] has as its system HBsAg in HepG2.2.15 cells. Put plainly: Secreted HBsAg ELISA, HepG2.2.15 cells. It is filed as cell-based, Hepatitis B virus. To be noted: 6 days. As to the method: as §4, §5
Series [10] concerns HBV (pHBV1.2× adr) in transfected HepG2 cells. The series is described as follows: microbe, parasite or virus in culture. The settings on record: 10 μM, 6 days. It is filed as cell-based, Hepatitis B virus. The source holds these as a separate data set.
Series [11] has as its system HepG2 cells transfected with pHBV1.2×. The settings on record: HBV 1.2x adr, 10 μM, 6 days, Sample1-3.
The conditions of series [12]: ref https://www.drugbank.ca/; cited from earlier work.
Where [13] appears, read: HepG2.2.15, 72 h, 1 μM, 3 days, ETV =100%, read-out: % of inhibition (ETV =100%), initial screening (3days).
Setting [14] is: HepG2.2.15, 144 h, 6 days, ETV =100%, read-out: % of inhibition (ETV =100%), confirmation (6days).
The mark [15] stands for this setting: HepG2.2.15, 72 h, read-out: % of inhibition (ETV =100%), initial screening (3days).
Where [16] appears, read: HepG2.2.15, 144 h, read-out: % of inhibition (ETV =100%), confirmation (6days).

A word on the viability: it is a read-out of living cells in per cent, often relative to untreated cells. Regarding `C=C1[C@H](CO)[C@@H](O)C[C@@H]1n1cnc2c(=O)[nH]c(N)nc21` [ETV, entecavir], the “Relative pgRNA promoter activity, AVERAGE” value in series [1] (pgRNA promoter, Control = 1) is 1.039. Further, the “Relative pgRNA promoter activity, Sample1-3” value in series [1] (pgRNA promoter, single samples) was 0.9019 and 1.084 and 1.13. Moreover, the “Relative sRNA promoter activity, AVERAGE” value in series [1] (sRNA promoter, Control = 1) came out at 1.037. The “Relative sRNA promoter activity, Sample1-3” value in series [1] (sRNA promoter, single samples) is 0.9017 and 1.283 and 0.9275. Further, the viability at 10 µM in series [2] (AVERAGE) came out at 101%; in [2] (individual samples, Sample1-3), 101%; in series [7] (AVERAGE) it was 99.6%; in series [7] (individual samples, Sample1-3), 99.3%. In addition, the “Relative HBV transcript R1, Sample1-3” value in [3] (R1, single samples) was 0.9971 and 1.095 and 1.085; in [5] (Suppl. fig. 12b, R1, single samples, ETV, Control = 1) it was 0.9164 and 1.011 and 1.015. Moreover, the “Relative HBV transcript R2, AVERAGE” value in series [3] (R2) came to 1.083; in series [5] (Suppl. fig. 12b, R2, ETV, Control = 1), 1.028. For the same molecule, the “Relative HBV transcript R3, AVERAGE” value is given as 0.953 in series [3] (R3) and 0.9829 in series [5] (Suppl. fig. 12b, R3, ETV, Control = 1). Moreover, the “Relative HBV transcript R3, Sample1-3” value in series [3] (R3, single samples) is 0.9903 and 0.9758 and 0.8935; in series [5] (Suppl. fig. 12b, R3, single samples, ETV, Control = 1), 0.9794 and 0.8641 and 0.8947. The “Relative secreted HBV DNA level (Folds), AVERAGE” value in series [4] (HBV 1.2x adr (figure 4g)) stood at 0.03628 Folds. Further, the “Relative secreted HBV DNA level (Folds), individual samples” value in series [4] (HBV 1.2x adr) was 0.356 Folds and 6.706e-5 Folds and 0.0005754 Folds. Further, in [5] (Fig. 1c, 6 days), the “Relative HBV pgRNA/precore RNA level (Folds), AVERAGE” value was determined as 0.9573 Folds. The “Relative secreted HBsAg (Folds), AVERAGE” value in series [6] (HBV 1.2x adr (figure 4i)) is listed as 0.996 Folds; in series [9] (HepG2.2.15 (figure 4f), 10 μM), 0.9837 Folds. Moreover, the “Relative secreted HBsAg (Folds), individual samples” value in [6] (HBV 1.2x adr, Sample1-2) was 1.007 Folds and 0.9855 Folds; in series [9] (HepG2.2.15, 10 μM, Sample1-2) it was 0.9818 Folds and 0.9857 Folds. Besides, the “HBV DNA particle secretion was reduced by” value in series [8] (1 μM, 3 days' incubation) was 42.1 ± 14.1%. For the same molecule, the activity at 10 µM in [8] (HepG2.2.15, 144 h, HepG2.2.15 (figure 4d), 10 μM, 6 days, read-out: Relative secreted HBV DNA level (Folds), AVERAGE) came out at 1.36%; in series [8] (HepG2.2.15, 144 h, HepG2.2.15, 10 μM, 6 days, read-out: Relative secreted HBV DNA level (Folds), individual samples), 1.96%. The “Relative intracellular HBV DNA level (Folds), AVERAGE” value in series [10] (HBV 1.2x adr (figure 4h)) worked out at 0.1393 Folds. For the same molecule, the “Relative intracellular HBV DNA level (Folds), individual samples” value in [10] (HBV 1.2x adr, Sample1-3) was 0.1084 Folds and 0.1053 Folds and 0.1147 Folds. Also, in series [11], the “Cell viability(%), individual samples” value was 100.151% and 99.4005%.

What is called inhibition is the drop in the measured response relative to a control, in per cent. For `CCCN(CCc1cccs1)[C@H]1CCc2c(O)cccc2C1` [Rotigotine], in [5] (Fig. 1c, 6 days), the “Relative HBV pgRNA/precore RNA level (Folds), AVERAGE” value is given as 1.049 Folds. Moreover, the inhibition at 1 µM in [8] (setting [13]) amounted to 104%. Besides, the inhibition at 1 µM in series [8] (setting [14]) came out at 65.9%. Moreover, in series [12], the “pKa value (acidic)” value is 10.03 and the “pKa value (basic)” value is on record as 10.97.

As for `CC(C)NCC(O)c1ccc(NS(C)(=O)=O)cc1` (stereo not shown) [Sotalol], in [5] (Fig. 1c, 6 days), the “Relative HBV pgRNA/precore RNA level (Folds), AVERAGE” value was determined as 1.022 Folds. Moreover, the inhibition at 1 µM in series [8] (setting [13]) is 128%; in series [8] (setting [14]), 69.7%. Besides, the “pKa value (acidic)” value in series [12] is reported as 10.07. Also, the “pKa value (basic)” value in [12] is on record as 9.43.

Turning to `CCOCC(O)COc1ccc(NC(=O)CC[S+](C)C)cc1` (stereo not shown) [Suplatast tosylate], the “Relative HBV pgRNA/precore RNA level (Folds), AVERAGE” value in series [5] (Fig. 1c, 6 days) was 1.034 Folds. The results for the inhibition at 1 µM in series [8] (setting [13]) and in [8] (setting [14]) were 125% and 76.2%, respectively. In series [12], the “pKa value (acidic)” value is reported as 12.7.

For the molecule `CN1C(C(=O)Nc2ccccn2)=C(O)c2sccc2S1(=O)=O` [Tenoxicam], the “Relative HBV pgRNA/precore RNA level (Folds), AVERAGE” value in series [5] worked out at 0.04619 Folds. In addition, the inhibition at 1 µM in [8] (setting [15]) came to 110%. Also, the inhibition at 1 µM in series [8] (setting [16]) was found to be 79.4%. In [12], the “pKa value (acidic)” value was 2.21 and the “pKa value (basic)” value is 4.26.

With `CC(C)(C)c1ccc(C(O)CCCN2CCC(C(O)(c3ccccc3)c3ccccc3)CC2)cc1` (stereo not shown) [Terfenadine], in series [5], the “Relative HBV pgRNA/precore RNA level (Folds), AVERAGE” value is 0.05435 Folds. For the same molecule, in series [8] (setting [15]), the inhibition at 1 µM came to 101%. Besides, the inhibition at 1 µM in [8] (setting [16]) is 83.6%. Also, in series [12], the “pKa value (acidic)” value was 13.2 and the “pKa value (basic)” value is 9.02.

On to `C[N+]1(C)[C@@H]2C[C@@H](OC(=O)C(O)(c3cccs3)c3cccs3)C[C@H]1[C@@H]1O[C@@H]12` [Tiotropium Bromide hydrate], for which the “Relative HBV pgRNA/precore RNA level (Folds), AVERAGE” value in series [5] (Fig. 1c, 6 days) came to 1.071 Folds. Moreover, the inhibition at 1 µM in series [8] (setting [13]) turned out to be 117%. For the same molecule, the inhibition at 1 µM in series [8] (setting [14]) came out at 4.9%. In [12], the “pKa value (acidic)” value was 10.35 and the “pKa value (basic)” value is on record as -4.3.
